# According to ChEMBL document CHEMBL5241054, “Effective anti-aromatase therapy to battle against estrogen-mediated breast cancer: Comparative SAR/QSAR assessment on steroidal aromatase inhibitors” (Eur J Med Chem, 2020):
# Values joined by “and” are separate entries in the source; they are usually repeats but may differ in a detail not shown here. Equal values may be shown once.
# Legend:
# Aromatase [1] = target: T1, Aromatase (Homo sapiens, UniProt P11511)
# T1 sequence (P11511 whole entry): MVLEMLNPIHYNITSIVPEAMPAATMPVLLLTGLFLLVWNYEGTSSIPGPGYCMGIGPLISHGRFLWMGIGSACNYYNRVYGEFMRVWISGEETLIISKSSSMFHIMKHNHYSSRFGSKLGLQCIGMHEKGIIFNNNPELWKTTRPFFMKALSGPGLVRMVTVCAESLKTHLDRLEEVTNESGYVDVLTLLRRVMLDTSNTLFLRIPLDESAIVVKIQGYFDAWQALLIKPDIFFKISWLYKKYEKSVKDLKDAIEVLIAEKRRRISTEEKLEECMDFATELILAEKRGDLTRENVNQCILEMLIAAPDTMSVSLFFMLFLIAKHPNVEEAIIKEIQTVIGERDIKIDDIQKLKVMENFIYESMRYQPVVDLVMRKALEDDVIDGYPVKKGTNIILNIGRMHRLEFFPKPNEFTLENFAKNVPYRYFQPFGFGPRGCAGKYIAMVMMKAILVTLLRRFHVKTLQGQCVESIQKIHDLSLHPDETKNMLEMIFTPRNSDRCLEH
# Aromatase [2] = target: T1, Aromatase; remark: listed apart in the source
# Aromatase [3] = target: T1, Aromatase; remark: listed apart in the source
# Aromatase [4] = target: T1, Aromatase; assay: Binding affinity to aromatase (unknown origin) assessed as change in gibbs free energy
SMILES,IC50 (Aromatase [1]),IC50 (Aromatase [2]) [nM],other results
C[C@]12CCC(=O)C=C1C=C(CCc1ccc([N+](=O)[O-])cc1)[C@@H]1[C@@H]2CC[C@]2(C)C(=O)CC[C@@H]12,4500 nM,95.1,–
C[C@]12C=CC(=O)C=C1C[C@@H](CCCc1ccccc1)[C@@H]1[C@@H]2CC[C@]2(C)C(=O)CC[C@@H]12,7.69 nM,63.7,–
C[C@]12CCC(=O)C=C1C=C(Cc1ccccc1)[C@@H]1[C@@H]2CC[C@]2(C)C(=O)CC[C@@H]12,600 nM,61,–
C[C@]12CC[C@H](O)CC1=CC[C@@H]1[C@@H]2CC[C@]2(C)C(=O)[C@@H](n3ccnc3)C[C@@H]12,–,–,pIC50 (Aromatase [3]): 5.481
C[C@]12CCC(=O)C(O)=C1CC[C@@H]1[C@@H]2CC[C@]2(C)C(=O)CC[C@@H]12 [FORMESTANE],–,562,deltaG (Aromatase [4]): 13.35 kcal/mol
C[C@@H]1C[C@@]2(C)C(=CC1=O)CC[C@@H]1[C@@H]2CC[C@]2(C)C(=O)CC[C@@H]12,250 nM and 460 nM,460,–
C[C@]12C=CC(=O)C=C1C[C@@H](Cc1ccccc1)[C@@H]1[C@@H]2CC[C@]2(C)C(=O)CC[C@@H]12,232 nM,19.2,–
C[C@]12CCC(=O)C=C1C(=O)C[C@@H]1[C@@H]2CC[C@]2(C)C(=O)CC[C@@H]12,1100 nM and 280 nM,280,–
C[C@]12CCC(=O)C=C1C=C(CCc1ccccc1)[C@@H]1[C@@H]2CC[C@]2(C)C(=O)CC[C@@H]12,661 nM,174,–
C[C@]12CCC(=O)C=C1C=C(Cc1ccc([N+](=O)[O-])cc1)[C@@H]1[C@@H]2CC[C@]2(C)C(=O)CC[C@@H]12,929 nM,94,–
C[C@]12C=CC(=O)C=C1C[C@@H](CCc1ccccc1)[C@@H]1[C@@H]2CC[C@]2(C)C(=O)CC[C@@H]12,16.7 nM,155,–
CC1(C)C[C@@]2(C=O)C(=CC1=O)CC[C@@H]1[C@@H]2CC[C@]2(C)C(=O)CC[C@@H]12,600 nM,–,–
CCC(=O)O[C@H]1C[C@@H]2[C@H](CC[C@]3(C)C(=O)CC[C@@H]23)[C@@]2(C)CCC(=O)C=C12,210 nM,–,–
CCO[C@H]1C[C@@H]2[C@H](CC[C@]3(C)C(=O)CC[C@@H]23)[C@@]2(C)CCC(=O)C=C12,1400 nM,–,–
C[C@]12C[C@@H](Cl)C(=O)C=C1CC[C@@H]1[C@@H]2CC[C@]2(C)C(=O)CC[C@@H]12,1400 nM,–,–
CCCO[C@H]1C[C@@H]2[C@H](CC[C@]3(C)C(=O)CC[C@@H]23)[C@@]2(C)CCC(=O)C=C12,1300 nM,–,–
COc1ccc([C@@H]2[C@H]3C[C@H]4[C@@H]5CC[C@H]6C[C@@H](O)CC[C@]6(C)[C@H]5CC[C@]4(C)C3=NN2c2ccccc2)cc1,5920 nM,–,–
C[C@]12C=CC(=O)C=C1C[C@@H](CCCc1ccc([N+](=O)[O-])cc1)[C@@H]1[C@@H]2CC[C@]2(C)C(=O)CC[C@@H]12,12.9 nM,75.7,–
CCCCCCC(=O)O[C@@H]1C[C@@H]2[C@H](CC[C@]3(C)C(=O)CC[C@@H]23)[C@@]2(C)CCC(=O)C=C12,1500 nM,–,–
C[C@]12CCC(=O)C=C1C=C(Cc1ccc(N)cc1)[C@@H]1[C@@H]2CC[C@]2(C)C(=O)CC[C@@H]12,490 nM,87.9,–
CCCC(=O)O[C@H]1C[C@@H]2[C@H](CC[C@]3(C)C(=O)CC[C@@H]23)[C@@]2(C)CCC(=O)C=C12,200 nM,–,–
CCOC1=C[C@@H]2[C@H](CC[C@]3(C)C(=O)CC[C@@H]23)[C@@]2(C)C=CC(=O)C=C12,951 nM,–,–

SMILES,IC50 (Aromatase [1]),IC50 (Aromatase [2]) [nM],other results
COc1ccc(/C=C2/C[C@H]3[C@@H]4CC[C@H]5C[C@@H](OC(=O)C(F)(F)F)CC[C@]5(C)[C@H]4CC[C@]3(C)C2=O)cc1,7000 nM,–,–
COc1ccc([C@@H]2[C@H]3C[C@H]4[C@@H]5CC[C@H]6C[C@@H](OC(=O)C(F)(F)F)CC[C@]6(C)[C@H]5CC[C@]4(C)C3=NN2C(C)=O)cc1,6460 nM,–,–
CN1N=C2[C@H](C[C@H]3[C@@H]4CC[C@H]5CC(=O)CC[C@]5(C)[C@H]4CC[C@]23C)[C@H]1c1ccccc1,4780 nM,–,–
C[C@]12CCC(=O)C=C1C=C(CCc1ccc(N)cc1)[C@@H]1[C@@H]2CC[C@]2(C)C(=O)CC[C@@H]12,1250 nM,87.9,–
C/C=C1\CC[C@@]2(C)[C@@H](CC[C@@H]3[C@@H]2CC[C@]2(C)C4=NN(c5ccccc5)[C@H](c5ccc(OC)cc5)[C@H]4C[C@@H]32)C1,3230 nM,–,–
C[C@]12C[C@@H](O)C(=O)C=C1CC[C@@H]1[C@@H]2CC[C@]2(C)C(=O)CC[C@@H]12,15300 nM,–,–
CC(=O)N1N=C2[C@H](C[C@H]3[C@@H]4CC[C@H]5C[C@@H](OC(=O)C(F)(F)F)CC[C@]5(C)[C@H]4CC[C@]23C)[C@H]1c1ccccc1,6580 nM,–,–
C[C@]12CC[C@H](OC(=O)C(F)(F)F)C[C@@H]1CC[C@@H]1[C@@H]2CC[C@]2(C)C3=NN(c4ccccc4)[C@H](c4ccccc4)[C@H]3C[C@@H]12,5680 nM,–,–
CCCCCC(=O)O[C@H]1C[C@@H]2[C@H](CC[C@]3(C)C(=O)CC[C@@H]23)[C@@]2(C)C=CC(=O)C=C12,210 nM,–,–
CC(=O)O[C@@H]1C[C@@H]2[C@H](CC[C@]3(C)C(=O)CC[C@@H]23)[C@@]2(C)CCC(=O)C=C12,20000 nM,–,–
COc1ccc([C@@H]2[C@H]3C[C@H]4[C@@H]5CC[C@H]6CC(=O)CC[C@]6(C)[C@H]5CC[C@]4(C)C3=NN2c2ccccc2)cc1,4160 nM,–,–
COC1=C[C@@H]2[C@H](CC[C@]3(C)C(=O)CC[C@@H]23)[C@@]2(C)C=CC(=O)C=C12,800 nM,–,–
CC(=O)O[C@H]1[C@@H](n2ccnc2)C[C@H]2[C@@H]3CC=C4C[C@@H](N5CCCC5)CC[C@]4(C)[C@H]3CC[C@@]21C,4900 nM,–,–
CCCCCCCC(=O)O[C@H]1C[C@@H]2[C@H](CC[C@]3(C)C(=O)CC[C@@H]23)[C@@]2(C)CCC(=O)C=C12,150 nM,–,–
CCCCO[C@H]1C[C@@H]2[C@H](CC[C@]3(C)C(=O)CC[C@@H]23)[C@@]2(C)CCC(=O)C=C12,780 nM,–,–
CCCO[C@@H]1C[C@@H]2[C@H](CC[C@]3(C)C(=O)CC[C@@H]23)[C@@]2(C)CCC(=O)C=C12,550 nM,–,–
C[C@]12CCCC[C@@H]1CC[C@@H]1[C@@H]2CC[C@]2(C)C(=O)CC[C@@H]12,2300 nM,–,–
C[C@@H]1C[C@@]2(CO)C(=CC1=O)CC[C@@H]1[C@@H]2CC[C@]2(C)C(=O)CC[C@@H]12,11000 nM,–,–
COCOC1=C2CC[C@@H]3[C@H](CC[C@]4(C)C(=O)CC[C@@H]34)[C@@]2(C)CCC1=O,4400 nM,–,–
CCC(=O)N1N=C2[C@H](C[C@H]3[C@@H]4CC[C@H]5C[C@@H](OC(=O)C(F)(F)F)CC[C@]5(C)[C@H]4CC[C@]23C)[C@H]1c1ccccc1,6710 nM,–,–
COc1ccc([C@@H]2[C@H]3C[C@H]4[C@@H]5CCC6=CC(=O)C=C[C@]6(C)[C@H]5CC[C@]4(C)C3=NN2C(C)=O)cc1,2650 nM,–,–
